Measurements: BindingDB's records for patent US10081629 (Jiangsu Hengrui Medicine, 2018)

Target: T1, Prostaglandin E synthase (Homo sapiens, UniProt O14684)
T1 sequence (O14684 whole entry): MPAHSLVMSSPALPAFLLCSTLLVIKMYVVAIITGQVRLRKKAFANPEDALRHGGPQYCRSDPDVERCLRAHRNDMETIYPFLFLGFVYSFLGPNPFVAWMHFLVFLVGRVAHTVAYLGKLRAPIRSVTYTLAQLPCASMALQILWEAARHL
Assay: mPGES1 enzyme assay
Procedure: mPGES1 was diluted with assay buffer and added into plate at 49 μL/well supplemented with 1 μL of compound (the final concentration of each compound at seven gradient concentrations was 10000 nM, 1000 nM, 100 nM, 10 nM, 1 nM, 0.1 nM and 0.01 nM). […] Then, each well was added with 53.8 μL of 6 mg/mL SnCl2 to quench the reaction. The sample was diluted with dilute buffer at 1:400. 10 μl of diluted sample, 5 μL PGE2-d2 and 5 μL anti-PGE2 Cryptate were added to a black 384-well plate, and incubated at 4° C. overnight. HTRF was determined using Flexstation, and the IC50 of the compounds was obtained by data processing software.

IC50: 13.4 nM
Structure (SMILES): COCCn1c(C2=CC=C(C(F)(F)F)CC2)cc2cc(NC(=O)c3cc(CNC(=O)C(C)(C)F)cnc3C(F)F)ccc21 [US10081629, Example 27]
